Experimental data reported in ChEMBL document CHEMBL5550154, “Novel biaryloxazolidinone derivatives with broad-spectrum antibacterial activity, favorable drug-like profiles and in vivo efficacy against linezolid-resistant Staphylococcusaureus” (Eur J Med Chem, 2024).
In brackets after ≈: the same amount, converted by molar mass.

What was measured:
[1] = Microsomal stability in human liver microsomes assessed as parent compound remaining pretreated with compound upto 60 mins followed by NADPH addition and measured after 60 mins by LC/MS analysis; type: ADME, Microsome; settings: time < 120 min; for remaining at 2 h: liver microsomes, read-out: Stability
[2] = Microsomal stability in rat liver microsomes assessed as elimination half life pretreated with compound upto 60 mins followed by NADPH addition and measured after 60 mins by LC/MS analysis; type: ADME, Microsome; settings: for half-life: liver microsomes, read-out: beta t1/2
[3] = Microsomal stability in human liver microsomes assessed as elimination half life pretreated with compound upto 60 mins followed by NADPH addition and measured after 60 mins by LC/MS analysis; type: ADME, Microsome; settings: time < 120 min; for half-life: liver microsomes, read-out: beta t1/2
[4] = AUC (0 to t) in Sprague-Dawley rat at 1 mg/kg, iv measured upto 24 hrs by LC-MS analysis; type: ADME, organism-based; settings: in vivo
[5] = Stability in human plasma assessed as parent compound remaining at 37 degreeC measured upto 60 mins by HPLC analysis; type: ADME, cell-free; settings: read-out: Stability
[6] = Stability in mouse plasma assessed as parent compound remaining at 25 degreeC measured upto 60 mins by HPLC analysis; type: ADME, cell-free; settings: for remaining at 1 h: read-out: Stability; for Stability: 1 h
[7] = Elimination half life in Sprague-Dawley rat at 1 mg/kg, iv measured upto 24 hrs by LC-MS analysis; type: ADME, organism-based; settings: in vivo, read-out: beta t1/2 (converted)
Cytochrome P450 2C9 = Cytochrome P450 2C9 (Homo sapiens, UniProt P11712); experiment: Inhibition of CYP2C9 in human liver microsomes using […] preincubated with compound for 5 mins followed by substrate addition and measured after 120 mins in presence of NADPH by LC-MS/MS analysis; type: ADME, Microsome
Chain of Cytochrome P450 2C9 (P11712 whole entry): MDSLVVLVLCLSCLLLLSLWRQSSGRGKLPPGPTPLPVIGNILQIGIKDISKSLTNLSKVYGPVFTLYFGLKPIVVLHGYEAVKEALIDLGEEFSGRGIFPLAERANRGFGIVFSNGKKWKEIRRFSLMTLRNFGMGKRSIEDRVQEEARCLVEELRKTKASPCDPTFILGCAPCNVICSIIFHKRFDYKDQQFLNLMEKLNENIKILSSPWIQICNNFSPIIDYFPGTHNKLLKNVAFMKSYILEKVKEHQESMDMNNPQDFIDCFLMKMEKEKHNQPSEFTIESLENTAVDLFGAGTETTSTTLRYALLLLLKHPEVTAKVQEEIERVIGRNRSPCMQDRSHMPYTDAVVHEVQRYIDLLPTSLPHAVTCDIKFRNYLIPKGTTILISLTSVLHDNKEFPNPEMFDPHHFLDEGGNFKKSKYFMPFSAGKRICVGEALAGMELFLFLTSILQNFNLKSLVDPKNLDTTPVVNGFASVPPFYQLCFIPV

[8] = Stability in simulated gastric acid assessed as compound remaining at pH 1.3 measured at 0.5 hrs; type: ADME; settings: read-out: Stability
Cytochrome P450 3A4 = Cytochrome P450 3A4 (Homo sapiens, UniProt P08684); experiment: Inhibition of CYP3A4 in human liver microsomes […] preincubated with compound for 5 mins followed by substrate addition and measured after 120 mins in presence of NADPH by LC-MS/MS analysis; type: ADME, Microsome
Chain of Cytochrome P450 3A4 (P08684 whole entry): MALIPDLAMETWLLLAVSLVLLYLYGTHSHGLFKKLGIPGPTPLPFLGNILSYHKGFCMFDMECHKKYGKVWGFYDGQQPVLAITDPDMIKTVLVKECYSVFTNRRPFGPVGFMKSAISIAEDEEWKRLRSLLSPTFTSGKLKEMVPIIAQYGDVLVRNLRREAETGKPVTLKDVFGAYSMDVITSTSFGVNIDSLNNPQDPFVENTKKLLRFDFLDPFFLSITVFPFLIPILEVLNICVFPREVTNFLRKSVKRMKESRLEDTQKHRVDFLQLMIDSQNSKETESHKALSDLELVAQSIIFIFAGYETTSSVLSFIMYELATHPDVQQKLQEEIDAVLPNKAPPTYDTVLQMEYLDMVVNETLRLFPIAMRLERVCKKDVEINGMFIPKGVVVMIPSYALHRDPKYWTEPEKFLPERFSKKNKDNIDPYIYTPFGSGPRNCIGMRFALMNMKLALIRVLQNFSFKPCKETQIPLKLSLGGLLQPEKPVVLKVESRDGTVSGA

Cytochrome P450 2D6 = Cytochrome P450 2D6 (Homo sapiens, UniProt P10635); experiment: Inhibition of CYP2D6 in human liver microsomes […] preincubated with compound for 5 mins followed by substrate addition and measured after 120 mins in presence of NADPH by LC-MS/MS analysis; type: ADME, Microsome
Chain of Cytochrome P450 2D6 (P10635 whole entry): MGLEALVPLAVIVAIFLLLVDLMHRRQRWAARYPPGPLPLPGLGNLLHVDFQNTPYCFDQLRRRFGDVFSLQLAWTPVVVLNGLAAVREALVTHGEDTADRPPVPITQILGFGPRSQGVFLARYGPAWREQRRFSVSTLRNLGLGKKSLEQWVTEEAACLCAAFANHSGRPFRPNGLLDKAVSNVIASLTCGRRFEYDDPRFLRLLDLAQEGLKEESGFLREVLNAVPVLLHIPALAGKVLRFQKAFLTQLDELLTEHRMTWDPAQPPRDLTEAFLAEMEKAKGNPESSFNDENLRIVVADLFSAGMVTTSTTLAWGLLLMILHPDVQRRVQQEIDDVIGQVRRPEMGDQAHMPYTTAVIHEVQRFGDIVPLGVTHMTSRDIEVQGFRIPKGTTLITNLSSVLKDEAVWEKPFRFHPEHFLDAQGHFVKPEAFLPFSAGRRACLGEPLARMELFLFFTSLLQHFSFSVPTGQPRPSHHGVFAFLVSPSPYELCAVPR

[9] = Cmax in ICR mouse at 10 mg/kg, IG measured upto 24 hrs by LC-MS analysis; type: ADME, organism-based; settings: in vivo, po
[10] = Aqueous solubility of compound at pH 2 by LC-MS/MS analysis; type: physicochemical; settings: buffer
[11] = Volume of distribution at steady state in ICR mouse at 1 mg/kg, iv measured upto 24 hrs by LC-MS analysis; type: ADME, organism-based; settings: in vivo, read-out: Vdss
[12] = Microsomal stability in human liver microsomes assessed as intrinsic clearance pretreated with compound upto 60 mins followed by NADPH addition and measured after 60 mins by LC/MS analysis; type: ADME, Microsome; settings: time < 120 min, read-out: CLH
[13] = Half life in ICR mouse at 1 mg/kg, iv measured upto 24 hrs by LC-MS analysis; type: ADME, organism-based; settings: in vivo
[14] = Stability in simulated gastric acid assessed as compound remaining at pH 1.3 measured immediately; type: ADME; settings: read-out: Stability
[15] = Stability in mouse plasma assessed as parent compound remaining at 37 degreeC measured upto 60 mins by HPLC analysis; type: ADME, cell-free; settings: read-out: Stability
[16] = Bioavailability in Sprague-Dawley rat at 10 mg/kg, IG measured upto 24 hrs by LC-MS analysis; type: ADME, organism-based; settings: in vivo, po
[17] = Microsomal stability in mouse liver microsomes assessed as elimination half life pretreated with compound upto 60 mins followed by NADPH addition and measured after 60 mins by LC/MS analysis; type: ADME, Microsome; settings: time < 120 min; for half-life: liver microsomes, read-out: beta t1/2
[18] = Half life in ICR mouse at 10 mg/kg, IG measured upto 24 hrs by LC-MS analysis; type: ADME, organism-based; settings: in vivo, po
[19] = Microsomal stability in monkey liver microsomes assessed as intrinsic clearance pretreated with compound upto 60 mins followed by NADPH addition and measured after 60 mins by LC/MS analysis; type: ADME, Macaca mulatta, Microsome; settings: rhesus monkey, time < 120 min, read-out: CLH
[20] = Apparent volume of distribution in Sprague-Dawley rat at 1 mg/kg, iv measured upto 24 hrs by LC-MS analysis; type: ADME, organism-based; settings: in vivo, read-out: Vz
[21] = Microsomal stability in rat liver microsomes assessed as parent compound remaining pretreated with compound upto 60 mins followed by NADPH addition and measured after 60 mins by LC/MS analysis; type: ADME, Microsome; settings: time < 120 min; for remaining at 2 h: liver microsomes, read-out: Stability
[22] = Plasma protein binding in dog incubated for 6 hrs by LC-MS/MS analysis; type: ADME, cell-free, Canis lupus familiaris; settings: read-out: PPB (converted)
Cytochrome P450 2C19 = Cytochrome P450 2C19 (Homo sapiens, UniProt P33261); experiment: Inhibition of CYP2C19 in human liver microsomes […] preincubated with compound for 5 mins followed by substrate addition and measured after 120 mins in presence of NADPH by LC-MS/MS analysis; type: ADME, Microsome
Chain of Cytochrome P450 2C19 (P33261 whole entry): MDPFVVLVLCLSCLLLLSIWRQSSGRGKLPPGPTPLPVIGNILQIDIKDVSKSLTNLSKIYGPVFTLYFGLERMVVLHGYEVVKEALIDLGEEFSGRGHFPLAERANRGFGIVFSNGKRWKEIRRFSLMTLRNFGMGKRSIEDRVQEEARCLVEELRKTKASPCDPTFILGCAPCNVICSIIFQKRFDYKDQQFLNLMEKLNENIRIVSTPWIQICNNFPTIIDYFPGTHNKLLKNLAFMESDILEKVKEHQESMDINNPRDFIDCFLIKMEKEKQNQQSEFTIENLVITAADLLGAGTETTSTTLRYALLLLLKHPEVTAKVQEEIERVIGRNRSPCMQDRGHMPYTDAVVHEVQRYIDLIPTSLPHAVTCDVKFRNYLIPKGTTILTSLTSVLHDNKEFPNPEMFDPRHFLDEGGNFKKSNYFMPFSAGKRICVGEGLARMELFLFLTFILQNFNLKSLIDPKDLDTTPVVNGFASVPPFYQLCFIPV

[23] = AUC (0 to t) in ICR mouse at 1 mg/kg, iv measured upto 24 hrs by LC-MS analysis; type: ADME, organism-based; settings: in vivo
[24] = Apparent permeability across apical to basolateral side in human Caco-2 cells; type: ADME, cell-based
[25] = Efflux ratio of apparent permeability across […] side in human Caco-2 cells; type: ADME, cell-based
[26] = molecular target: T1, Amine oxidase [flavin-containing] A (Homo sapiens, UniProt P21397); experiment: Inhibition of MAO-A (unknown origin) preincubated with compound for 15 mins followed by substrate addition and measured after 60 mins by luminescence based microplate reader analysis; type: toxicity
T1 sequence (P21397 whole entry): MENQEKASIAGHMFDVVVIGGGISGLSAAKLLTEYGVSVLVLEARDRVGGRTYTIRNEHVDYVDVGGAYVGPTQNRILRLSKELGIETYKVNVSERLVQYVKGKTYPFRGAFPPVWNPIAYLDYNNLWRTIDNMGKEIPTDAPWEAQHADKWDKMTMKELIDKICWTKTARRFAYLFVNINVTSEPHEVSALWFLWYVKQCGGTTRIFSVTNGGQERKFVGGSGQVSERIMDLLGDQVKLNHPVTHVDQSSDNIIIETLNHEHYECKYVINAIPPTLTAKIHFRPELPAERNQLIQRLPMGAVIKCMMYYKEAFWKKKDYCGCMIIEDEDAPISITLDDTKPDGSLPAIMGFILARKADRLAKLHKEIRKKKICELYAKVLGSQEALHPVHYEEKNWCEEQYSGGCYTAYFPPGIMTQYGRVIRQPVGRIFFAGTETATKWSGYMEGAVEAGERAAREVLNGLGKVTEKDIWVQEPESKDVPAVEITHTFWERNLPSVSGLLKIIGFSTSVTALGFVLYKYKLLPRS

Staphylococcus aureus [27] = experiment: Antibacterial activity against Linezolid-resistant Staphylococcus aureus infected in systemic infection SPF-kunming mouse model assessed as survival rate at 2.5 mg/kg, IG measured every day for 7 days; type: functional; settings: po, 168 h, time 7 day
Staphylococcus aureus [28] = experiment: Antibacterial activity against Linezolid-resistant Staphylococcus aureus infected in systemic infection SPF-kunming mouse model assessed as survival rate at 40 mg/kg, IG measured every day for 7 days; type: functional; settings: po, 168 h, time 7 day
Staphylococcus aureus [29] = experiment: Antibacterial activity against methicillin-sensitive Staphylococcus aureus assessed as inhibition of bacterial growth; type: functional

| Structure (SMILES) | remaining at 2 h [1] | AUC(0-t) at 24 h [4] | remaining at 1 h [5] | half-life [7] | IC50 (Cytochrome P450 2C9) | IC50 (Cytochrome P450 3A4) | IC50 (Cytochrome P450 2D6) | Cmax [9] | solubility [10] | Vd [11] | microsomal CLint [12] | half-life [13] | remaining at 1 h [15] | bioavailability [16] | microsomal CLint [19] | Vd [20] | fraction unbound at 6 h [22] | IC50 (Cytochrome P450 2C19) | AUC(0-t) at 24 h [23] | half-life [2] | also measured |
| --- | --- | --- | --- | --- | --- | --- | --- | --- | --- | --- | --- | --- | --- | --- | --- | --- | --- | --- | --- | --- | --- |
| CC(C)N/N=C/c1ccc(-c2ccc(N3C[C@H](CO)OC3=O)cc2F)cn1 | 85.8% | 1580 ng·h/mL | 107% | 0.98 h | > 30 µM | 16.5 µM | > 30 µM | 479 ng/mL | 56.4 µM (≈ 21 µg/mL) | 0.42 L/kg | 5.78 µL/min/mg | 0.34 h | 80.2% | 65.8% | 13.7 µL/min/mg | 0.72 L/kg | 0.074 | 11 µM | 475 ng·h/mL | – | beta t1/2 ([2]; microsomes, 1 h): 1.87 h; half-life [3]: 4.68 h; remaining at 1 h [6]: 113%; remaining at 0.5 h [8]: 96.7%; remaining at 0 h [14]: 100%; beta t1/2 ([17]; microsomes, 2 h): 1.26 h; half-life [18]: 3.3 h; Stability ([21]; microsomes, 2 h): 70.2% |
| O=C1O[C@@H](CO)CN1c1ccc(-c2ccc(/C=N/N3CCCCC3)nc2)c(F)c1 | – | 1400 ng·h/mL | 118% | 1.23 h | 5.38 µM | > 30 µM | > 30 µM | 817 ng/mL | 58.4 µM (≈ 23.3 µg/mL) | 1.31 L/kg | 11.8 µL/min/mg | 1.54 h | 111% | 51.1% | 17.2 µL/min/mg | 1.06 L/kg | 0.017 | 0.858 µM | 1190 ng·h/mL | 1.61 h | Stability ([1]; microsomes, 2 h): 71.7%; beta t1/2 ([3]; microsomes, 2 h): 2 h; Papp A→B [24]: 11.1 ×10⁻⁶ cm/s; Stability [6]: 123%; Ratio [25]: 1.5; half-life [17]: 2.5 h; remaining at 2 h [21]: 63.3% |
| O=C1O[C@@H](CO)CN1c1ccc(-c2ccc(/C=N/N3CCOCC3)nc2)c(F)c1 | 66.2% | 1220 ng·h/mL | 98.6% | 0.8 h | > 30 µM | > 30 µM | > 30 µM | 4810 ng/mL | 52.6 µM (≈ 21.1 µg/mL) | 0.87 L/kg | 12.7 µL/min/mg | 2.1 h | 98.3% | 68.1% | 3.25 µL/min/mg | 0.81 L/kg | 0.169 | > 30 µM | 2640 ng·h/mL | 10.2 h | half-life [3]: 1.83 h; Papp A→B [24]: 36.7 ×10⁻⁶ cm/s; Stability [6]: 125%; Ratio [25]: 0.61; IC50 [26]: 5.64 µM; survival at 2.5 mg/kg (Staphylococcus aureus [27]): 0%; half-life [17]: 12.2 h; half-life [18]: 2.85 h; remaining at 2 h [21]: 93.4%; survival at 40 mg/kg (Staphylococcus aureus [28]): 100% |
| O=C1O[C@@H](CO)CN1c1ccc(-c2ccc(/C=N/N3CCS(=O)(=O)CC3)nc2)c(F)c1 | 98.7% | 1120 ng·h/mL | 104% | 0.72 h | > 30 µM | > 30 µM | > 30 µM | – | 72.2 µM (≈ 32.4 µg/mL) | – | 1.51 µL/min/mg | – | 102% | 19.8% | 2.39 µL/min/mg | 0.73 L/kg | 0.275 | > 30 µM | – | 12.1 h | half-life [3]: 15.3 h; Stability [6]: 133%; half-life [17]: 32.5 h; remaining at 2 h [21]: 92.8% |
| CC(=O)NC[C@H]1CN(c2ccc(N3CCOCC3)c(F)c2)C(=O)O1 [LINEZOLID] | 102% | 719 ng·h/mL | 110% | 0.41 h | > 30 µM | > 30 µM | > 30 µM | 10000 ng/mL | – | 0.56 L/kg | – | 0.39 h | 105% | – | 0.446 µL/min/mg | 0.75 L/kg | 0.829 | > 30 µM | 794 ng·h/mL | 10.4 h | remaining at 1 h [6]: 110%; IC50 [26]: 20 µM; MIC (Staphylococcus aureus [29]): 1 µg/mL (≈ 2.96 µM); half-life [17]: 10.6 h; half-life [18]: 0.8 h; remaining at 2 h [21]: 93.9% |
